Laboratory results as given in US20050238777A1, “Condensed palatinose and method for producing the same” (priority 2002, published 2005).

Tests used:
[1] = Stability in stomach: hydrolysis rate at pH 2.0, 37° C.; assay type: physicochemical; settings: 1% solution, 10 mM hydrochloric acid (pH 2.0)
Protocol: The stability of a substance in the gastric passage can be simulated by determining the hydrolysis rate at pH 2.0. Sucrose and 1-kestose are used as controls. […] Samples are taken from the reaction batch after […], 120 and 180 min and are analyzed by basic anion exchange chromatography, HPAEC.

[2] = molecular target: T1, saccharase/isomaltase enzyme complex (SI complex) (Sus scrofa, UniProt P56729); experiment: Stability with respect to intestinal α-glucosidases: saccharase/isomaltase; assay type: in vitro ADME, pig; settings: 1% solution, pH 7.0, 0.7 U enzyme complex, 37° C., incubation time 120 min
T1 construct: are isolated from a pig intestine by the method of H. Heymann; from tissue; host or cells: pig intestine (mucosa of the small intestine)
Description: (§1) The enzyme complexes saccharase/isomaltase and glucoamylase/maltase that are present on the mucosa in the small intestine in vivo serve to break down disaccharides like maltose and sucrose that reach the small intestine and also to break down maltooligosaccharides to monosaccharides to some degree, and as such these components are absorbed into the blood circulation via the intestinal wall. The enzyme complexes saccharase/isomaltase (SI complex) and glucoamylase/maltase (GM complex) are isolated from a pig intestine by the method of H. […] (solution 2 to solution 6), mixed and incubated at 37° C. The reaction is stopped after 2 h by heating to 95° C. for 15 min. The monosaccharides that have formed and the undegraded saccharides in the relative batches are quantitatively determined by HPAEC.

[3] = test system: glucoamylase/maltase enzyme complex (GM complex); experiment: Stability with respect to intestinal α-glucosidases: glucoamylase/maltase; assay type: in vitro ADME, pig; settings: 1% solution, pH 7.0, 0.7 U enzyme complex, 37° C., incubation time 120 min
Description: as §1

T1 sequence (P56729 with tags, fused parts or gaps): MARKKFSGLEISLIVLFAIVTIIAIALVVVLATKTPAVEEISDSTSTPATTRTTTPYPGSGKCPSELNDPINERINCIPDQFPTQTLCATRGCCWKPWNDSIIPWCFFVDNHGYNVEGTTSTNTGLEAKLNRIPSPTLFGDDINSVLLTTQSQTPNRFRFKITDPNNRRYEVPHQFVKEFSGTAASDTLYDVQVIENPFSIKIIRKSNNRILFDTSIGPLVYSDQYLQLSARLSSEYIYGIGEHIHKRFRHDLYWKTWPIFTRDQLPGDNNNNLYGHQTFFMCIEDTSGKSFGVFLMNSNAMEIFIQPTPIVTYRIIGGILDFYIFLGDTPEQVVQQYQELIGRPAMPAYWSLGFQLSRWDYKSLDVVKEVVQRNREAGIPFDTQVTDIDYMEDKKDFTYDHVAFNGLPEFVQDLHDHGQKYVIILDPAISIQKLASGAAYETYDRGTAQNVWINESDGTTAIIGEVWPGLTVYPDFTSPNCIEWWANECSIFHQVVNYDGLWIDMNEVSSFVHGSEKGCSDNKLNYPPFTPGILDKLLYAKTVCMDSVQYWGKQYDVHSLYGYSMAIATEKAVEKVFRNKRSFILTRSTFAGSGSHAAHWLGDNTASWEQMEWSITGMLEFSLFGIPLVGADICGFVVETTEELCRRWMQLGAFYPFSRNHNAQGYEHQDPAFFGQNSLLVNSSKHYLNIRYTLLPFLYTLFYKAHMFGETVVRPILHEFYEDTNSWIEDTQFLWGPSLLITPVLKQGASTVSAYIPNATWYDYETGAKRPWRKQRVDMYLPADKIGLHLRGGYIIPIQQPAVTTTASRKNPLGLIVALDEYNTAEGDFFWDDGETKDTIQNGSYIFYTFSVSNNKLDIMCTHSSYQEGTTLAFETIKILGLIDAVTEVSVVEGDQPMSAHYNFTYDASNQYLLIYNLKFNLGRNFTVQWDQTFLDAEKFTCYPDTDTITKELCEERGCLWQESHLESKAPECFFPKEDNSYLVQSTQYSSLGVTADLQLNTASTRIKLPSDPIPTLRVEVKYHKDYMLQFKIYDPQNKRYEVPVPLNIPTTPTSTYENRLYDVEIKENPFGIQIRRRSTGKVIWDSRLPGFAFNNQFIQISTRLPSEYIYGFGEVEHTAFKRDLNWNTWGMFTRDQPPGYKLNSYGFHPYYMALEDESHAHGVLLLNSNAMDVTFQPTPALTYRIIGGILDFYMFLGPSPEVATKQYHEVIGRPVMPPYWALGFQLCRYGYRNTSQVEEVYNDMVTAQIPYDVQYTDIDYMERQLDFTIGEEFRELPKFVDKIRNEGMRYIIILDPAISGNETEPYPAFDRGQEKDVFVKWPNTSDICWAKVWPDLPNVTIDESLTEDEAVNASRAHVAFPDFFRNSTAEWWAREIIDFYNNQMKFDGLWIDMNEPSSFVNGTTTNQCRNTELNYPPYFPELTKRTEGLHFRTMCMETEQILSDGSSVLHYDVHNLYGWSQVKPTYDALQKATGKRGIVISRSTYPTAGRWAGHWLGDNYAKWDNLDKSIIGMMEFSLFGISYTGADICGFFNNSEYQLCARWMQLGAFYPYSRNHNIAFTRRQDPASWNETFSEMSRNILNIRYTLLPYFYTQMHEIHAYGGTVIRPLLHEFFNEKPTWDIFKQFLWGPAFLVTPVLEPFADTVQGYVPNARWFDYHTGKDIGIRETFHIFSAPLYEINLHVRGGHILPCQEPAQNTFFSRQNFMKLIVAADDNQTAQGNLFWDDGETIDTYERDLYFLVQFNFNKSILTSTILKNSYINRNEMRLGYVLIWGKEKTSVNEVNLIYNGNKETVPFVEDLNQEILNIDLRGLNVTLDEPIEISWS

Row | Structure (SMILES) | Hydrolysis rate (%) ([1]; incubation time 0 min) | Hydrolysis rate (%) ([1]; incubation time 60 min) | Hydrolysis rate (%) ([1]; incubation time 120 min) | Hydrolysis rate (%) ([1]; incubation time 180 min) | Hydrolysis rate (%), incubation with Saccharase/Isomaltase [2] | Hydrolysis rate (%), incubation with Glucoamylase/Maltase [3]
1 | OC[C@H]1O[C@@](CO)(OC[C@@]2(O[C@H]3O[C@H](CO)[C@@H](O)[C@H](O)[C@H]3O)O[C@H](CO)[C@@H](O)[C@@H]2O)[C@@H](O)[C@@H]1O [Example 1-Kestose, 1-Kestose] | 0% | 11% | 25% | 36% | – | –
2 | OC[C@H]1O[C@H](O[C@H]2[C@H](O)[C@@H](O)C(O)O[C@@H]2CO)[C@H](O)[C@@H](O)[C@@H]1O (mixture of isomers) [Maltose] | – | – | – | – | 95% | 96%
3 | OC[C@H]1O[C@@](CO)(O[C@H]2O[C@H](CO)[C@@H](O)[C@H](O)[C@H]2O)[C@@H](O)[C@@H]1O [Sucrose] | 0% | 2% | 5% | 8% | 98% | –
